In general, IC50 refers to the concentration at which inhibition is half-maximal. A low value points to inhibition by little substance.

Some results are limits rather than exact numbers.

Chain of PolQ ATPase enzyme (1-894) (O75417 1-894): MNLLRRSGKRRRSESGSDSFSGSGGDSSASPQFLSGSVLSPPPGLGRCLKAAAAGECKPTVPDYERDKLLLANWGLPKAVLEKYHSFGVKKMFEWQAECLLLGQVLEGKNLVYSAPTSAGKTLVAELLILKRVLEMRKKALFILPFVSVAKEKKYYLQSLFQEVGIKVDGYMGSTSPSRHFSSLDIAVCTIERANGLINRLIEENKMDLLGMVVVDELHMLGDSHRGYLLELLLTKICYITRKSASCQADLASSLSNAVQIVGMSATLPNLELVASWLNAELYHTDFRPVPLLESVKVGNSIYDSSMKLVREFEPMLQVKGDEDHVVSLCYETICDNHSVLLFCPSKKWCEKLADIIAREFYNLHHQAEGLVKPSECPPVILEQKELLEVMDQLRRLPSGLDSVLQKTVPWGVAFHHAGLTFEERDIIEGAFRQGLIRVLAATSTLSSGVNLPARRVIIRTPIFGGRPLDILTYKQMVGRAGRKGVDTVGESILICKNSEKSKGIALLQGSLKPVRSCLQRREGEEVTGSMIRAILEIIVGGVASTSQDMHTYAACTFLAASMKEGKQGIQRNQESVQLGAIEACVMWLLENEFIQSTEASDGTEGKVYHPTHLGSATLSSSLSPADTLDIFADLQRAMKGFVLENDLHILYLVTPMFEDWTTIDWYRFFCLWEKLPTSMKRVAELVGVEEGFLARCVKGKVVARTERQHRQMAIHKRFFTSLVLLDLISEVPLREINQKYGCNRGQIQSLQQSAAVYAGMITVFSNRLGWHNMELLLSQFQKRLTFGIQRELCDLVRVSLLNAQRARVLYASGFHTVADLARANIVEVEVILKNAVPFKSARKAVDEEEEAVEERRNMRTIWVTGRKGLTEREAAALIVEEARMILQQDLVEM

This experiment addresses PolQ ATPase enzyme (1-894) (Homo sapiens (Human), UniProt O75417). Kind of experiment: Polθ ATPase enzymatic assay (0.5 nM enzyme concentration), ADP-Glo. It is filed as biochemical. The conditions noted are these: average IC50; 0.5 nM PolQ ATPase enzyme (1-894). In short, it runs like this: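 Enzyme (0.5 nM) pre-incubated 15 min at rt with 10-point inhibitor series in 50 mM Tris pH 7.5, 10% glycerol, 5 mM DTT, 10 mM MgCl2, 0.1 mg/ml BSA; reaction started with 20 nM fork DNA and 100 μM ATP, run 180 min at rt. ADP-Glo luminescence; IC50 from 4-parameter variable-slope fit.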
(In ADP-Glo the light output rises with the ADP produced.)
`COc1cnc(Cl)cc1-c1cn(CC(=O)N2CCOCC2)c(=O)cc1C(=O)Nc1nnc(C#CC2CC2)s1` [Compound 347] showed an IC50 of 3.4 nM. With `COc1cnc(C(F)F)cc1-c1cc(N2CC(=O)N(C)C3(CC3)C2=O)ncc1C(=O)Nc1nnc(C#CC2CC2)s1` [Compound 469] the figure was less than 0.25 nM; with `COc1cnc(C(F)F)cc1-c1cnccc1C(=O)Nc1nnc([C@H]2C[C@@H]2c2ccc(C#N)cc2)s1` [Compound 275], 3.1 nM.

Regarding `COc1cnc(C(F)F)cc1-c1cc(NC(C)=O)ccc1C(=O)Nc1nnc(C#CC2CC2)s1` [Compound 225], it took 0.56 nM to reach half-maximal inhibition (IC50). For `COc1cnc(C(F)F)cc1-c1cc(N2CCCC(F)C2=O)ncc1C(=O)Nc1nnc(C#CC2CC2)s1` (stereo not drawn) [Compound 352], the half-inhibitory concentration (IC50) is less than 0.25 nM. The molecule `Cc1nnc(-n2cc(-c3cc(C(F)(F)F)ccc3Cl)c(C(=O)Nc3nnc(C#CC4CC4)s3)cc2=O)o1` [Compound 429] showed an IC50 of less than 0.25 nM. The figure for `Cc1nnc(Cn2cc(-c3cc(C(F)(F)F)ccc3Cl)c(C(=O)Nc3ncc(C#CC4CC4)s3)cc2=O)o1` [Compound 115, 5-(2-chloro-5-(trifluoromethyl)phenyl)-N-(5-(cyclopropylethynyl)thiazol-2-yl)-1-((5-methyl-1,3,4-oxadiazol-2-yl)methyl)-2-oxo-1,2-dihydropyridine-4-carboxamide] is less than 0.25 nM; for `COc1cnc(C(F)F)cc1-c1cc(N2CCN(C)C(C)(C)C2=O)ncc1C(=O)Nc1nnc(C#CC2CC2)s1` [Compound 367] it is 0.27 nM.

Consider `COc1cnc(C(F)F)cc1-c1cc(N2CCOC[C@@H]2C)ncc1C(=O)Nc1nnc(C#CC2CC2)s1` [Compound 377], for which the IC50 was more than 100 nM. For `COc1cnc(C(F)F)cc1-c1cc(N2CCO[C@H](C)C2=O)ncc1C(=O)Nc1nnc(C#CC2CC2)s1` [Compound 173], half-maximal inhibition (IC50) was put at 0.41 nM. With `COc1cnc(C(F)F)cc1-c1cc(CC(=O)N(C)C)ccc1C(=O)Nc1nnc(C#CC2CC2)s1` [Compound 265] the figure was less than 0.25 nM. The figure for `COc1cnc(C(F)F)cc1-c1cc(N2CCN(CC3CC3)CC2=O)ncc1C(=O)Nc1nnc(C#CC2CC2)s1` [Compound 386] is less than 0.25 nM; for `COc1cnc(C(F)F)cc1-c1cc(OCc2ccn(C)n2)ncc1C(=O)Nc1nnc(C#CC2CC2)s1` [Compound 183] it is 0.49 nM. `COc1cnc(C(F)F)cc1-c1cc(N2CCC(C)(O)CC2)ncc1C(=O)Nc1nnc(C#CC2CC2)s1` [Compound 121] returned a concentration for half-maximal inhibition (IC50) of 2 nM. On to `COc1cnc(C(F)(F)F)cc1-c1cnccc1C(=O)Nc1nnc(C#CC2CC2)s1` [Compound 91], for which the half-maximal inhibitory concentration (IC50) came out at 2.3 nM.

Take `COc1cnc(C(F)F)cc1-c1cc(-c2ccn(C)n2)c(F)cc1C(=O)Nc1nnc(C#CC2CC2)s1` [Compound 457]: it took 0.37 nM to reach half-maximal inhibition (IC50). With `CNC(=O)Cn1cc(-c2cc(C(F)(F)F)ccc2OC)c(C(=O)Nc2nnc(C#Cc3cc(C)[nH]n3)s2)cc1=O` [Compound 82] the figure was less than 0.25 nM; with `COc1cnc(C(F)F)cc1-c1cc(N2CCC3CC3C2=O)ncc1C(=O)Nc1nnc(C#CC2CC2)s1` (stereo not drawn) [Compound 142], less than 0.25 nM; with `CN(C)C(=O)Cn1cc(-c2cc(C(F)F)ccc2Cl)c(C(=O)Nc2nnc(C#CC3CC3)s2)cc1=O` [Compound 317], less than 0.25 nM. The figure for `CCc1nn(C)cc1-c1cc(-c2ccn(C)n2)ncc1C(=O)Nc1nnc(C#CC2CC2)s1` [Compound 433] is 6.2 nM. The figure for `C#C[C@@H]1C[C@H]1c1nnc(NC(=O)c2ccc(N3CCOCC3=O)cc2-c2cc(C(F)F)ncc2OC)s1` [Compound 177] is 0.39 nM; for `COc1cnc(Cl)cc1-c1cc(N2CCCC2=O)ccc1C(=O)Nc1nnc(C#CC2CC2)s1` [Compound 39] it is 0.27 nM.

The molecule `COc1cnc(C(F)F)cc1-c1cc(-n2ccc3occc3c2=O)ncc1C(=O)Nc1nnc(C#CC2CC2)s1` [Compound 439] came in with an IC50 of less than 0.25 nM. For `COc1cnc(C(F)F)cc1-c1cc(N2CCC3(CCC3)CC2=O)ncc1C(=O)Nc1nnc(C#CC2CC2)s1` [Compound 395], the IC50 worked out at 0.25 nM. With `COc1cnn(-c2cc(-c3cc(C(F)F)ncc3OC)c(C(=O)Nc3nnc(C#CC4CC4)s3)cn2)c(=O)c1` [Compound 420], 0.31 nM corresponded to half-maximal inhibition (IC50). This IC50 and that of the molecule before are within 1.5-fold of each other. With `COc1cnc(C(F)F)cc1-c1cc(-c2nnc(C)o2)ccc1C(=O)Nc1nnc(C2C[C@H]2c2ccc(C#N)cc2)s1` (stereo partly drawn) [Compound 168] the figure was 0.34 nM; with `COc1cnc(C(F)(F)F)nc1-c1cnccc1C(=O)Nc1nnc(C#CC2CC2)s1` [Compound 338], 4.7 nM. In the case of `COc1cnc(C(F)F)cc1-c1cc(-c2cnn(C3CCNCC3)c2)ncc1C(=O)Nc1nnc(C#CC2CC2)s1` [Compound 398], the IC50 was determined as 2.1 nM. The figure for `COc1cnc(Cl)cc1-c1cnccc1C(=O)Nc1nnc(C2C[C@H]2c2ccc(C#N)cc2O)s1` (stereo partly drawn) [Compound 273] is 1.8 nM. Molecule `COc1cnc(C(F)F)cc1-c1cc(CC#N)ccc1C(=O)Nc1ncc(C#CC2CC2)s1` [Compound 193] showed a concentration for half-maximal inhibition (IC50) of 2.5 nM. With `COc1cnc(C(F)F)cc1-c1cc(-c2cc(C)n(C)n2)ncc1C(=O)Nc1nnc(C#CC2CC2)s1` [Compound 450], the half-maximal inhibitory concentration (IC50) turned out to be 0.48 nM. `COc1cnc(C(F)F)cc1-c1cc(-c2ccn(C)n2)ncc1C(=O)Nc1nnc(C#CC2CC2)s1` [Compound 113, N-(5-(cyclopropylethynyl)-1,3,4-thiadiazol-2-yl)-2′-(difluoromethyl)-5′-methoxy-6-(1-methyl-1H-pyrazol-3-yl)-[4,4′-bipyridine]-3-carboxamide] yielded a concentration for half-maximal inhibition (IC50) of 0.53 nM. As to `COc1cnc(C(F)F)cc1-c1cc(C#CC(C)(C)C#N)ncc1C(=O)Nc1nnc(C#CC2CC2)s1` [Compound 184], the IC50 stood at 0.45 nM. With `COc1cnc(C(F)F)cc1-c1cc(-n2ccc(C(F)(F)F)cc2=O)ncc1C(=O)Nc1nnc(C#CC2CC2)s1` [Compound 445] the figure was less than 0.25 nM; with `COc1cnc(C(F)F)cc1-c1cc(-n2ccc(C)cc2=O)ncc1C(=O)Nc1nnc(C#CC2CC2)s1` [Compound 387, N-(5-(cyclopropylethynyl)-1,3,4-thiadiazol-2-yl)-2″-(difluoromethyl)-5″-methoxy-4-methyl-2-oxo-2H-[1,2′:4′,4″-terpyridine]-5′-carboxamide], less than 0.25 nM; with `CNc1ccc(C(=O)Nc2nnc(C#CC3CC3)s2)c(-c2cc(C(F)F)ncc2OC)c1` [Compound 243], 15 nM. `COc1cnc(Cl)cc1-c1cc(-c2ccn(C)n2)ccc1C(=O)Nc1nnc(C#CC2CC2)s1` [Compound 307]: the IC50 was less than 0.25 nM. Molecule `COc1cnc(C(F)F)cc1-c1cc(C2C[C@@H]2C(=O)N(C)C)ccc1C(=O)Nc1nnc(C#CC2CC2)s1` (stereo partly drawn) [Compound 362] yielded a half-inhibitory concentration (IC50) of 1.4 nM.

As to `COc1cnc(C(F)F)cc1-c1cc(-n2ncc(C)cc2=O)ncc1C(=O)Nc1nnc(C#CC2CC2)s1` [Compound 435], the IC50 was less than 0.25 nM. The figure for `COc1cnc(C(F)F)cc1-c1cc(OC[C@H]2CCOC2)ncc1C(=O)Nc1nnc(C#CC2CC2)s1` [Compound 149] is 0.37 nM; for `COc1cnc(C(F)F)cc1-c1cc(CO)ncc1C(=O)Nc1nnc(C#CC2CC2)s1` [Compound 272] it is 1.2 nM.

`COc1cnc(C(F)F)cc1-c1cc(N(C)C(=O)C2(C)CC2)ccc1C(=O)Nc1nnc(C#CC2CC2)s1` [Compound 221] returned an IC50 of 0.98 nM.

The molecule `COc1cnc(C(F)F)cc1-c1cc(CC(=O)N2CC(F)(F)C2)ncc1C(=O)Nc1nnc(C#CC2CC2)s1` [Compound 446] returned an IC50 of less than 0.25 nM. The figure for `COc1cnc(Cl)cc1-c1cnccc1C(=O)Nc1nnc(C2C[C@H]2c2ccc(C#N)nc2)s1` (stereo partly drawn) [Compound 318] is 4.8 nM; for `COc1ccc(C(F)(F)F)cc1-c1cn(C)c(=O)cc1C(=O)Nc1nnc(C#Cc2cc(C)[nH]n2)s1` [Compound 102] it is 1.2 nM; for `COc1cnc(C(F)F)cc1-c1cc(NCCOCC(=O)O)ncc1C(=O)Nc1nnc(C#CC2CC2)s1` [Compound 159] it is 0.79 nM. With `COc1cnc(C(F)F)cc1-c1cc(C#Cc2cnn(C)c2)ncc1C(=O)Nc1nnc(C#CC2CC2)s1` [Compound 185] the figure was less than 0.25 nM; with `COc1cnc(Cl)nc1-c1cc(-c2ccn(C)n2)ncc1C(=O)Nc1nnc(C#CC2CC2)s1` [Compound 417], 3.7 nM. The figure for `CN(C)C(=O)Cn1cc(-c2cc(C(F)(F)F)ccc2Cl)c(C(=O)Nc2nnc(C#CC3CC3)s2)cc1=O` [Compound 34, 5-(2-chloro-5-(trifluoromethyl)phenyl)-N-(5-(cyclopropylethynyl)-1,3,4-thiadiazol-2-yl)-1-(2-(dimethylamino)-2-oxoethyl)-2-oxo-1,2-dihydropyridine-4-carboxamide] is 0.29 nM. Take `COc1cnc(Cl)nc1-c1cn(C)c(=O)cc1C(=O)Nc1nnc(C#CC2CC2)s1` [Compound 335]: the IC50 was found to be 4.3 nM. As for `COc1cnc(C(F)(F)F)cc1-c1cnccc1C(=O)Nc1nnc(C#CC2CC23CC3)s1` (stereo not drawn) [Compound 69], the IC50 was determined as 0.28 nM. `COc1cnc(Cl)cc1-c1cn(CC(N)=O)c(=O)cc1C(=O)Nc1nnc(C#CC2CC2)s1` [Compound 105] had an IC50 of 0.47 nM. The figure for `COc1cnc(C(F)F)cc1-c1cc(-c2nc(C)co2)ncc1C(=O)Nc1nnc(C#CC2CC2)s1` [Compound 430] is less than 0.25 nM; for `COc1cnc(C(F)F)cc1-c1cc(N2CCO[C@@H](C)C2=O)ncc1C(=O)Nc1nnc(C#CC2CC2)s1` [Compound 174] it is less than 0.25 nM; for `COc1ccc(C(F)(F)F)cc1-c1cc(N2CCN(C)C2=O)ncc1C(=O)Nc1nnc(C#CC2CC2)s1` [Compound 281] it is 20 nM. On to `C#C[C@@H]1CC1c1nnc(NC(=O)c2ccncc2-c2cc(C(F)F)ncc2OC)s1` (stereo partly drawn) [Compound 323], for which 4.5 nM corresponded to half-maximal inhibition (IC50). The figure for `COc1cnc(C(F)F)cc1-c1cc(CC(=O)N2CC(C)(O)C2)ccc1C(=O)Nc1ncc(C#CC2CC2)s1` [Compound 205] is 0.16 nM.

Source of the values: patent publication US20250026748A1, “N-(5-SUBSTITUTED-[(1,3,4-THIADIAZOLYL) OR (THIAZOLYL)])(SUBSTITUTED)CARBOXAMIDE COMPOUNDS AND USE THEREOF FOR INHIBITING HUMAN POLYMERASE THETA” (Repare Therapeutics Inc., priority 2021, published 2025).
